Laboratory results taken from paper PMC9319939, “Siccanin Is a Dual-Target Inhibitor of Plasmodium falciparum Mitochondrial Complex II and Complex III” (Pharmaceuticals, 2022).

Key:
[1] = target: T1, dihydroorotate dehydrogenase (DHODH) (Plasmodium falciparum, UniProt Q08210); assay: DHODH activity, crude mitochondrial fraction, DCIP reduction; assay type: biochemical
T1 construct: used as crude mitochondrial fraction for all enzymatic assays; endogenous in cells; host or cells: P. falciparum 3D7 trophozoite-stage parasites, crude mitochondrial fraction
T1 sequence (Q08210 24-569): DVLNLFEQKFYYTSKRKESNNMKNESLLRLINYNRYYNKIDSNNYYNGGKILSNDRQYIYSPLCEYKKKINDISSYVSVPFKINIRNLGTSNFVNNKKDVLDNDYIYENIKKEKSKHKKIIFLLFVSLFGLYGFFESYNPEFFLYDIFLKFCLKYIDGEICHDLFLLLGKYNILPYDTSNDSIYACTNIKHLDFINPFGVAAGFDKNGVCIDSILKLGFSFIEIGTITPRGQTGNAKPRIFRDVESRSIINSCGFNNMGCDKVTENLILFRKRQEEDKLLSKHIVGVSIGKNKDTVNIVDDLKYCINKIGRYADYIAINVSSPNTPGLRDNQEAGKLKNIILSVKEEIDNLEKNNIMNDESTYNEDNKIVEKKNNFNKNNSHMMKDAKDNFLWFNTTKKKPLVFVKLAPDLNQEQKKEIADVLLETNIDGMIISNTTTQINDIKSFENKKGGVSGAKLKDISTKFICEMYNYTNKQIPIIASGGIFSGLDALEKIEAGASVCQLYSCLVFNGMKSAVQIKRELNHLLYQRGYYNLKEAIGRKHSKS
Protocol: A synchronized parasite culture was grown for 64 h and a crude mitochondrial fraction was prepared from trophozoite-stage cells (as confirmed by Giemsa staining). Infected red blood cells were collected by centrifugation at 800× g for 5 min at 4 °C and incubated for 5 min at room temperature with 40 mL of 0.075% (w/v) saponin in AIM buffer (120 mM KCl, 20 mM NaCl, 10 mM PIPES (1,4-piperazinediethanesulfonic acid) buffer [pH 6.7], 1 mM MgCl2, 5 mM glucose). Released parasites were collected by centrifugation at 2780× g for 7 min at 4 °C and washed three times with AIM buffer. P. falciparum was suspended in MSE buffer [225 mM mannitol, 75 mM sucrose, 0.1 mM ethylenediaminetetraacetic acid (EDTA), 3 mM Tris-HCl buffer, pH 7.4] containing 1 mM phenylmethylsulphonyl fluoride, and disrupted by nitrogen cavitation at 1200 psi using a 4639 Cell Disruption Bomb (Parr Instrument Company; Moline, IL, USA). The unbroken cells and cell debris were removed by centrifugation at 800× g for 5 min at 4 °C. The supernatant was centrifuged at 5000× g for 20 min at 4 °C. […]
Complex II, DHODH, MQO, NDH2, G3PDH, and dihydroorotate-cytochrome c (DHO-cyt c) reductase activities were measured, as described previously, using a V-660 spectrophotometer (JASCO; Tokyo, Japan). Briefly, complex II activity was measured at 25 °C in a 1 mL reaction mixture containing 45 μM 2,6-dichlorophenolidophenol (DCIP), 100 μM ubiquinone-2 (UQ2), and 2 mM KCN in 50 mM potassium phosphate buffer, pH 8.0. DHODH, MQO, and G3PDH activities were measured at 25 °C in 1 mL of the reaction mixture containing 45 μM DCIP, 100 μM UQ2, and 2 mM KCN in 30 mM Tris-HCl buffer, pH 8.0. Complex II, DHODH, MQO, and G3PDH activities were measured by monitoring the change in absorbance at 600 nm (reflecting DCIP reduction) after the reaction was initiated by adding 10 mM succinate, 500 μM dihydroorotate, 10 mM malate, or 500 μM glycerol-3-phosphate, respectively. NDH2 activity was measured at 25 °C in 1 mL of the reaction mixture containing 100 µM UQ1 and 2 mM KCN in 50 mM potassium phosphate buffer, pH 8.0. […]

[2] = target: mammalian complex I and III (Sus scrofa, UniProt F1RNZ1+P24964); assay: NADH-cytochrome c reductase activity in porcine mitochondria; assay type: biochemical
Sequence of mammalian complex I and III (F1RNZ1 entry or part of it): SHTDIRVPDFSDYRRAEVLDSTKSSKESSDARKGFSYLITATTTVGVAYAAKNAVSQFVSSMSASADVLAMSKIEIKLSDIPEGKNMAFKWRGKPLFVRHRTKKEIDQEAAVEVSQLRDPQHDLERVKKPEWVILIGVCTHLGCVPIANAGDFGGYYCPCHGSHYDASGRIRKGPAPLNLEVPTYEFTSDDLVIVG
Sequence of mammalian complex I and III (P24964 whole entry): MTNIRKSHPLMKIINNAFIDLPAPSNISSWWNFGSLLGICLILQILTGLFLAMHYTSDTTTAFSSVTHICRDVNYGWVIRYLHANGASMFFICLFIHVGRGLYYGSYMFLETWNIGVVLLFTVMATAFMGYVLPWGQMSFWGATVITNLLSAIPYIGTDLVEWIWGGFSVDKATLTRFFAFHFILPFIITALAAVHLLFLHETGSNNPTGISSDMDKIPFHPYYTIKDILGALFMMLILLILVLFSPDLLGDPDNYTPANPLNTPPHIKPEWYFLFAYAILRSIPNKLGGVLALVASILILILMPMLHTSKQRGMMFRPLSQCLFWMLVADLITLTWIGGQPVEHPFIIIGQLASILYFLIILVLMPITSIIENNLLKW
Sequence of mammalian complex I and III (F1SKM0 entry or part of it, further chain): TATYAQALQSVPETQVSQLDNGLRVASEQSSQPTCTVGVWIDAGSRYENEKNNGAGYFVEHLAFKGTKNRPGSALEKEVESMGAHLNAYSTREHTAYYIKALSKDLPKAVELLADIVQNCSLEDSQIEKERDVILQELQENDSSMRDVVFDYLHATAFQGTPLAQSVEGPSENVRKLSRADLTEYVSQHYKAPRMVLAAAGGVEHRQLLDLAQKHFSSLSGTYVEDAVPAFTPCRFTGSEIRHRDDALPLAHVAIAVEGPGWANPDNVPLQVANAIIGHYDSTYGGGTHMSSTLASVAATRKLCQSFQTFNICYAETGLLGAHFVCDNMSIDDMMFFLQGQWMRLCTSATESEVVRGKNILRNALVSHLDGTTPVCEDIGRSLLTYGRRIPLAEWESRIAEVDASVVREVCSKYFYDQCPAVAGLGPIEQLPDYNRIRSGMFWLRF
Protocol: Porcine mitochondria were prepared as described previously. NADH-cytochrome c (NADH-cyt c) activity was measured at 25 °C in 1 mL of the reaction mixture containing 1 mM MgCl2, 2 mM KCN, and 20 μM cytochrome c in 30 mM potassium phosphate buffer, pH 7.5. Activity was measured by recording the absorbance change of cytochrome c at 550 nm after the reaction was initiated by the addition of 20 μM NADH. Various concentrations of siccanin dissolved in DMSO were added to reaction mixtures 5 min before the initiation of the reactions. Selectivity was calculated as the ratio of mammalian to P. falciparum IC50s.

Question: For `Cc1cc(O)c2c(c1)O[C@@]1(C)CC[C@H]3C(C)(C)CCC[C@]34CO[C@@H]2[C@H]41` [Siccanin], which “Effect on DHODH activity” value ([1]; 10 µM) is on record?
Answer: did not inhibit

Question: And the “Effect on DHODH activity” value ([1]; 60 μM)?
Answer: does not inhibit

Question: And the remaining activity at 10 µM ([1]; siccanin 10 μM, read-out: Relative residual activity of DHODH)?
Answer: 101 ± 8.1%

Question: What about the “Effect on mammalian complex I and III” value ([2]; concentrations as high as 500 µM) of the same compound?
Answer: did not inhibit

Question: And the IC50 ([2]; read-out: Siccanin IC50, Mammal, Complex III, NADH-cytochrome c reductase, porcine mitochondria)?
Answer: > 500 µM
